Measured values from patent US10253002B2, “Compounds and methods of treating infections” (Neoculi Pty Ltd., priority 2013, dated 2019).

Key:
[1] = tested on: S. aureus isolates (HA-MRSA, CA-MRSA, methicillin-susceptible staphylococci); assay: Kirby-Bauer disc diffusion resistotyping, Example 4; assay type: cell-based, Staphylococcus aureus; conditions: for Total isolates resistant (Kirby-Bauer disc diffusion): all isolates (n = 30)
Procedure: Antibiotic-susceptibility profiling of the isolate collection was undertaken using Kirby-Bauer disc diffusion, as recommended by the Clinical and Laboratory Standards Institute (CLSI) on Mueller-Hinton agar. Isolates were grown overnight on SBA at 37° C. Colonies were suspended in physiological saline. Turbidity was adjusted to a 0.5 McFarland standard and suspensions were spread over the medium. Antibiotic discs according to Table 9 below were transferred onto the inoculated medium and analysed after 24 h incubation at 37° C.

[2] = tested on: Staphylococcus pseudintermedius isolates (MSSP and MRSP); assay: Disk diffusion and Epsilometer susceptibility testing, Example 6; assay type: cell-based; conditions: 13 MRSP isolates
S. pneumoniae isolates = assay: Disk diffusion susceptibility (CLSI/EUCAST), Example 5; assay type: cell-based, Streptococcus pneumoniae; conditions: for disk diffusion susceptibility category: WCH184 (Table 18)
Procedure: Isolate susceptibility to 12 different antimicrobials (Table 16) was determined by CLSI and European Committee on Antimicrobial Susceptibility Testing (EUCAST) methods. Antimicrobials were selected based upon the CLSI and EUCAST guidelines. Standardised bacterial suspensions were spread onto MHSBA using a sterile cotton swab. Bacterial suspensions from of Streptococcus pneumoniae were standardised to an OD6O0 between 0.08 and 0.1 using a spectrophotometer and then diluted 1:20. Bacterial colonies were taken from an O/N horse blood agar plate. To ensure the purity of the 1:20 bacterial suspension, 50 μL was spread plated onto horse blood agar and incubated O/N at 37° C. with 5% CO2. The CFU was calculated and compared to the initial plate counts. Antibiotic disks (Purchased from Sigma Aldrich) were placed using a disk dispenser (Purchased from Oxoid) according to CLSI standards. MHSBA plates were incubated for 16 h-24 h at 37° C. in 5% CO2. Zones of complete inhibition were measured in triplicate to the nearest millimeter using a ruler on natural light-reflected growth, and the mode was represented as the diameter for each isolate. Pneumococcal isolates were categorised as sensitive, intermediate (I) or resistant (R) by CLSI standards and quality control (QC) ranges (Table 16).

[3] = Methicillin-susceptible staphylococci (n = 10)

Compound | isolates resistant (Kirby-Bauer disc diffusion) ([1]; CA-MRSA (n = 10)) [%] | isolates resistant (Kirby-Bauer disc diffusion) ([1]; HA-MRSA (n = 10)) [%] | isolates resistant (Kirby-Bauer disc diffusion) [1, 3] [%] | Total isolates resistant (Kirby-Bauer disc diffusion) [1] [%] | disk diffusion zone diameter (S. pneumoniae isolates; A66.1) [mm] | disk diffusion zone diameter (S. pneumoniae isolates; D39) [mm] | disk diffusion zone diameter (S. pneumoniae isolates; EF3030) [mm] | disk diffusion zone diameter (S. pneumoniae isolates; L82016) [mm] | disk diffusion zone diameter (S. pneumoniae isolates; P9) [mm] | disk diffusion zone diameter (S. pneumoniae isolates; P21) [mm] | disk diffusion zone diameter (S. pneumoniae isolates; TIGR4) [mm] | disk diffusion zone diameter (S. pneumoniae isolates; WCH16) [mm] | disk diffusion zone diameter (S. pneumoniae isolates; WCH43) [mm] | disk diffusion zone diameter (S. pneumoniae isolates; WCH46) [mm] | disk diffusion zone diameter (S. pneumoniae isolates; WCH57) [mm] | disk diffusion zone diameter (S. pneumoniae isolates; WCH77) [mm] | disk diffusion zone diameter (S. pneumoniae isolates; WCH86) [mm] | disk diffusion zone diameter (S. pneumoniae isolates; WCH89) [mm] | disk diffusion zone diameter (S. pneumoniae isolates; WCH92) [mm] | disk diffusion zone diameter (S. pneumoniae isolates; WCH137) [mm] | other results
CO[C@@]1(NC(=O)C2SC(=C(C(N)=O)C(=O)O)S2)C(=O)N2C(C(=O)O)=C(CSc3nnnn3C)CS[C@@H]21 (stereo partly shown) [Cefotetan] | 20.00 | 80.00 | 0.00 | 33.33 |  |  |  |  |  |  |  |  |  |  |  |  |  |  |  |  | resistant isolates, number (percentage) ([1]; Unclassified (n = 2), Overall): 2 (100%); resistant isolates, number (percentage) ([1]; mec gene complex A (n = 4), Overall): 4 (100%); resistant isolates, number (percentage) ([1]; mec gene complex A (n = 4), SCCmec type II): 3 (100%); resistant isolates, number (percentage) ([1]; mec gene complex A (n = 4), SCCmec type III): 1 (100%); resistant isolates, number (percentage) ([1]; mec gene complex B (n = 10), Overall): 2 (20%); resistant isolates, number (percentage) ([1]; mec gene complex B (n = 10), SCCmec type I): 1 (50%); resistant isolates, number (percentage) ([1]; mec gene complex B (n = 10), SCCmec type IV): 1 (12.5%); resistant isolates, number (percentage) ([1]; mec gene complex C2 (n = 4), Overall): 2 (50%); resistant isolates, number (percentage) ([1]; mec gene complex C2 (n = 4), SCCmec type V): 2 (50%); MRSP isolates susceptible [2]: 92%
CC1=C(C(=O)O)N2C(=O)[C@@H](NC(=O)[C@H](N)c3ccccc3)[C@H]2SC1 [Cephalexin] | 20.00 | 80.00 | 10.00 | 40.00 |  |  |  |  |  |  |  |  |  |  |  |  |  |  |  |  | 
CC[C@H]1OC(=O)[C@H](C)[C@@H](O[C@H]2C[C@@](C)(OC)[C@@H](O)[C@H](C)O2)[C@H](C)[C@@H](O[C@@H]2O[C@H](C)C[C@H](N(C)C)[C@H]2O)[C@](C)(OC)C[C@@H](C)C(=O)[C@H](C)[C@@H](O)[C@]1(C)O [Clarithromycin] |  |  |  |  | 30 | 32 | 32 | 34 | 40 | 38 | 35 | 33 | 28 | 39 | 39 | 37 | 36 | 31 | 27 | 33 | disk diffusion zone diameter (S. pneumoniae isolates; WCH158): 38 mm; disk diffusion zone diameter (S. pneumoniae isolates; WCH184): 10 mm; disk diffusion susceptibility category (S. pneumoniae isolates): R; disk diffusion zone diameter (S. pneumoniae isolates; WCH211): 33 mm; disk diffusion zone diameter (S. pneumoniae isolates; WU2): 31 mm
CCC[C@@H]1C[C@@H](C(=O)N[C@@H]([C@H]2O[C@H](SC)[C@H](O)[C@@H](O)[C@H]2O)[C@H](C)Cl)N(C)C1 [Clindamycin] | 50.00 | 50.00 | 30.00 | 43.33 | 34 | 27 | 26 | 32 | 31 | 25 | 28 | 28 | 22 | 30 | 34 | 28 | 30 | 27 | 24 | 26 | Total isolates resistant (Kirby-Bauer disc diffusion) ([1]; listed as clindamycin): 43.33%; disk diffusion zone diameter (S. pneumoniae isolates; WCH158): 32 mm; disk diffusion zone diameter (S. pneumoniae isolates; WCH184): 10 mm; disk diffusion susceptibility category (S. pneumoniae isolates): R; disk diffusion zone diameter (S. pneumoniae isolates; WCH211): 27 mm; disk diffusion zone diameter (S. pneumoniae isolates; WU2): 27 mm
CC1(C)S[C@@H]2[C@H](NC(=O)Cc3ccccc3)C(=O)N2[C@H]1C(=O)O [Penicillin-G] | 100.00 | 100.00 | 50.00 | 83.33 |  |  |  |  |  |  |  |  |  |  |  |  |  |  |  |  | Total isolates resistant (Kirby-Bauer disc diffusion) ([1]; listed as penicillin-G): 83.33%
